The assay deals with T1, hMC2 receptor (crude hMC2R membranes from CRE-bla-CHO-K1 cells stably expressing hMC2 receptor and hMRAP accessory protein) (Homo sapiens, UniProt Q01718).
T1 construct: crude membrane fractions
T1 sequence (Q01718 whole entry): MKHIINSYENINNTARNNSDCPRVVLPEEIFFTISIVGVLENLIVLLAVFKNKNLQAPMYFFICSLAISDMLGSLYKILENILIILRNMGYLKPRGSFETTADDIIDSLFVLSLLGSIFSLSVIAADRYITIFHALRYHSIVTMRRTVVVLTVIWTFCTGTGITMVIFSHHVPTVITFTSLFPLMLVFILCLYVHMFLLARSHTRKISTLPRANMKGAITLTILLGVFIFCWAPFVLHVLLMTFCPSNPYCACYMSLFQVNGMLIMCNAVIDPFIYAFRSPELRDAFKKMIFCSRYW
T1 sequence (Q8TCY5 whole entry partner): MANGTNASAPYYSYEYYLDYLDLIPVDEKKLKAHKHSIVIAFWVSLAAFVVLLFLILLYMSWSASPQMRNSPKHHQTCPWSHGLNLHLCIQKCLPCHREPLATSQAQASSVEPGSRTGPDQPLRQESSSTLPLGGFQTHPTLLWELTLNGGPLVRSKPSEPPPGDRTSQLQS
Briefly: hMC2 membrane binding assay ([125I]ACTH (1-39) Tyr23, SPA). The following applies: displacement of 0.2 nM [125I]ACTH (1-39) Tyr23 from hMC2R membranes, 1.5 hours at room temperature; read-out: MC2R binding potency. As for the experimental part: Crude membrane fractions are prepared from CRE-bla-CHO-K1 cells stably expressing hMC2 receptor and hMRAP accessory protein (Thermo Fisher). The cells are grown to 85-100% confluence on standard tissue culture dishes in GlutaMax DMEM growth media (Gibco) with following additives: 10% dialyzed FBS (Gemini), 0.1 mM NEAA (Gibco), 25 mM HEPES (Gibco), 5 μg/mL blasticidin (Goldbio), 100 μg/mL zeocin (Invitrogen), 600 μg/mL hygromycin (Goldbio). To prepare membranes, cells are scraped and collected in 1× Dulbecco's phosphate buffered saline (Corning) and then pelleted at 1000 RPM's. The cell pellet is reconstituted in membrane preparation buffer (20 mM HEPES, 6 mM MgCl2 and 1 mM EGTA, protease inhibitor tablets (Pierce) adjusted to pH 7.4), homogenized using a dounce homogenizer, and the resulting membrane fraction is pelleted by centrifugation at 12,000 RPM's. The membrane pellet is resuspended in membrane preparation buffer, snap freezed and stored at −80° C. for later use.
Binding Assay for hMC2 Antagonists Protocol:
The hMC2 membrane binding assay utilizes the following components: radiolabel [^125I]ACTH (1-39) Tyr23 (PerkinElmer), wheatgerm agglutinin coated PVT SPA beads (PerkinElmer), crude hMC2R membranes, and compounds. Briefly hMC2R membranes are incubated with SPA beads in binding assay buffer (50 mM HEPES, 5 mM MgCl2, 1 mM CaCl2), 0.20% BSA, protease inhibitor tablets (Pierce) adjusted to pH7.4) prior to assay initiation. […] Assay plates are read using a Top Count NXT and Ki values for compounds are determined using a GraphPad Prism 6 non-linear regression analysis.
For `CCOc1ccccc1-c1ncc(C2(C(=O)NCCN(C)C)CCN(c3ccc(C(F)(F)F)cc3F)CC2)cc1F` [Compound 1-289, N-[2-(dimethylamino)ethyl]-4-[6-(2-ethoxyphenyl)-5-fluoropyridin-3-yl]-1-[2-fluoro-4-(trifluoromethyl)phenyl]piperidine-4-carboxamide], the Ki was below 10 nM.

As to `CN(CCNC(=O)C1(c2ccc(-c3cccn3C)nc2)CCN(c2ccc(C(F)(F)F)cc2C#N)CC1)C1CC1` [Compound 1-266, 1-[2-cyano-4-(trifluoromethyl)phenyl]-N-{2-[cyclopropyl(methyl)amino]ethyl}-4-[6-(1-methyl-1H-pyrrol-2-yl)pyridin-3-yl]piperidine-4-carboxamide], the Ki is below 10 nM.

As for `COc1ccccc1-c1ccc(C2(C(=O)NC[C@H]3CN(C)CCO3)CCN(c3ccc(C(F)(F)F)cc3C#N)CC2)cn1` [Compound 1-327, 1-[2-cyano-4-(trifluoromethyl)phenyl]-4-[6-(2-methoxyphenyl)pyridin-3-yl]-N-{[(2S)-4-methylmorpholin-2-yl]methyl}piperidine-4-carboxamide], the Ki lay within 10 to 100 nM.

Take `CN1CC[C@H](NC(=O)C2(c3ccc(-c4cccn4C)nc3)CCN(c3ccc(C(F)(F)F)cc3C#N)CC2)C1` [Compound 1-100, 1-[2-cyano-4-(trifluoromethyl)phenyl]-4-[6-(1-methyl-1H-pyrrol-2-yl)pyridin-3-yl]-N-[(3S)-1-methylpyrrolidin-3-yl]piperidine-4-carboxamide]: the Ki is below 10 nM.

Regarding `CCn1nccc1-c1ccc(C2(C(=O)N[C@@H]3CCN(C)C3)CCN(c3ccc(C(F)(F)F)cc3C#N)CC2)cn1` [Compound 1-62, 1-[2-cyano-4-(trifluoromethyl)phenyl]-4-[6-(1-ethyl-1H-pyrazol-5-yl)pyridin-3-yl]-N-[(3R)-1-methylpyrrolidin-3-yl]piperidine-4-carboxamide], the Ki is below 10 nM.

Take `C[C@@H](CN(C)C)NC(=O)C1(c2cnc(-c3cccn3C)c(F)c2)CCN(c2ccc(C(F)(F)F)cc2C#N)CC1` [Compound 1-324, 1-[2-cyano-4-(trifluoromethyl)phenyl]-N-[(2S)-1-(dimethylamino)propan-2-yl]-4-[5-fluoro-6-(1-methyl-1H-pyrrol-2-yl)pyridin-3-yl]piperidine-4-carboxamide]: the Ki was below 10 nM.

Turning to `CCOc1ncccc1-c1ncc(C2(C(=O)N[C@@H](C)CN(C)C)CCN(c3ccc(C(F)(F)F)cc3C#N)CC2)cc1F` [Compound 1-319, 1-[2-cyano-4-(trifluoromethyl)phenyl]-N-[(2S)-1-(dimethylamino)propan-2-yl]-4-{2′-ethoxy-3-fluoro-[2,3′-bipyridin]-5-yl}piperidine-4-carboxamide], the Ki was below 10 nM.

Regarding `CN1CC[C@H](NC(=O)C2(c3ccc(-c4cccn4C)nc3)CCN(c3ccc(C(F)(F)F)cc3F)CC2)C1` [Compound 1-173, 1-[2-fluoro-4-(trifluoromethyl)phenyl]-4-[6-(1-methyl-1H-pyrrol-2-yl)pyridin-3-yl]-N-[(3S)-1-methylpyrrolidin-3-yl]piperidine-4-carboxamide], the Ki was below 10 nM.

Take `CN1CCC[C@@H]1CNC(=O)C1(c2ccc(-c3cccn3C)nc2)CCN(c2ccc(C(F)(F)F)cc2C#N)CC1` [Compound 1-232, 1-[2-cyano-4-(trifluoromethyl)phenyl]-4-[6-(1-methyl-1H-pyrrol-2-yl)pyridin-3-yl]-N-{[(2R)-1-methylpyrrolidin-2-yl]methyl}piperidine-4-carboxamide]: the Ki was below 10 nM.

Consider `CCOc1ncccc1-c1ccc(C2(C(=O)N[C@H]3CCN(C)C3)CCN(c3ccccc3C#N)CC2)cn1` [Compound 1-32, 1-(2-cyanophenyl)-4-{2′-ethoxy-[2,3′-bipyridin]-5-yl}-N-[(3S)-1-methylpyrrolidin-3-yl]piperidine-4-carboxamide], for which the Ki lay within 10 to 100 nM.

Take `CN1CC[C@@H](NC(=O)C2(c3ccc(-c4cccc5ccoc45)nc3)CCN(c3ccc(C(F)(F)F)cc3C#N)CC2)C1` [Compound 1-54, 4-[6-(1-benzofuran-7-yl)pyridin-3-yl]-1-[2-cyano-4-(trifluoromethyl)phenyl]-N-[(3R)-1-methylpyrrolidin-3-yl]piperidine-4-carboxamide]: the Ki lay in the range of 10 to 100 nM.

In the case of `CNC[C@H](C)NC(=O)C1(c2ccc(-c3cccnc3OC)nc2)CCN(c2ccc(C(F)(F)F)cc2Cl)CC1` [Compound 1-307, 1-[2-chloro-4-(trifluoromethyl)phenyl]-4-{2′-methoxy-[2,3′-bipyridin]-5-yl}-N-[(2S)-1-(methylamino)propan-2-yl]piperidine-4-carboxamide], the Ki was below 10 nM.

For `CCOc1ncccc1-c1ccc(C2(C(=O)N[C@@H]3CCN(C)C3)CCN(c3ccc(C(F)(F)F)cc3C#N)CC2)cc1` [Compound 1-1, 1-[2-cyano-4-(trifluoromethyl)phenyl]-4-[4-(2-ethoxypyridin-3-yl)phenyl]-N-[(3R)-1-methylpyrrolidin-3-yl]piperidine-4-carboxamide], the Ki is below 10 nM.

Take `CCOc1ncccc1-c1ccc(C2(C(=O)N[C@@H]3CCNC3)CCN(c3ccc(C(F)(F)F)cc3C#N)CC2)cn1` [Compound 1-10, 1-[2-cyano-4-(trifluoromethyl)phenyl]-4-{2′-ethoxy-[2,3′-bipyridin]-5-yl}-N-[(3R)-pyrrolidin-3-yl]piperidine-4-carboxamide]: the Ki is below 10 nM.

For `CN1CC[C@@H](OC(=O)NC2(c3ccc(-c4cccn4C)nc3)CCN(c3ccc(C(F)(F)F)cc3C#N)CC2)C1` [Compound 2-41, (3R)-1-methylpyrrolidin-3-yl N-{1-[2-cyano-4-(trifluoromethyl)phenyl]-4-[6-(1-methyl-1H-pyrrol-2-yl)pyridin-3-yl]piperidin-4-yl}carbamate], the Ki is below 10 nM.

As for `COc1ncc(F)cc1-c1ccc(C2(C(=O)N[C@H]3CCN(C)C3)CCN(c3ccc(C(F)(F)F)cc3Cl)CC2)cn1` [Compound 1-154, 1-[2-chloro-4-(trifluoromethyl)phenyl]-4-{5′-fluoro-2′-methoxy-[2,3′-bipyridin]-5-yl}-N-[(3S)-1-methylpyrrolidin-3-yl]piperidine-4-carboxamide], the Ki is below 10 nM.

Regarding `CN(C)C1(CNC(=O)C2(c3ccc(-c4cccn4C)nc3)CCN(c3ccc(C(F)(F)F)cc3C#N)CC2)CC1` [Compound 1-263, 1-[2-cyano-4-(trifluoromethyl)phenyl]-N-{[1-(dimethylamino)cyclopropyl]methyl}-4-[6-(1-methyl-1H-pyrrol-2-yl)pyridin-3-yl]piperidine-4-carboxamide], the Ki was in the range of 10 to 100 nM.

As to `CCOc1ncccc1-c1ccc(C2(C(=O)NCCNC)CCN(c3ccc(C(F)(F)F)cc3C#N)CC2)cc1` [Compound 1-7, 1-[2-cyano-4-(trifluoromethyl)phenyl]-4-[4-(2-ethoxypyridin-3-yl)phenyl]-N-[2-(methylamino)ethyl]piperidine-4-carboxamide], the Ki was below 10 nM.

As to `Cc1occc1-c1ccc(C2(C(=O)N[C@H]3CCN(C)C3)CCN(c3ccc(C(F)(F)F)cc3C#N)CC2)cn1` [Compound 1-120, 1-[2-cyano-4-(trifluoromethyl)phenyl]-4-[6-(2-methylfuran-3-yl)pyridin-3-yl]-N-[(3S)-1-methylpyrrolidin-3-yl]piperidine-4-carboxamide], the Ki is below 10 nM.

With `COc1ncc(F)cc1-c1ncc(C2(C(=O)N[C@H]3CCN(C)C3)CCN(c3ccc(C(F)(F)F)cc3F)CC2)cc1F` [Compound 1-210, 4-{3,5′-difluoro-2′-methoxy-[2,3′-bipyridin]-5-yl}-1-[2-fluoro-4-(trifluoromethyl)phenyl]-N-[(3S)-1-methylpyrrolidin-3-yl]piperidine-4-carboxamide], the Ki was below 10 nM.

For `COCc1ccccc1-c1ccc(C2(C(=O)N[C@@H]3CCN(C)C3)CCN(c3ccc(C(F)(F)F)cc3C#N)CC2)cn1` [Compound 1-79, 1-[2-cyano-4-(trifluoromethyl)phenyl]-4-{6-[2-(methoxymethyl)phenyl]pyridin-3-yl}-N-[(3R)-1-methylpyrrolidin-3-yl]piperidine-4-carboxamide], the Ki was below 10 nM.

As to “1-{1-[2-cyano-4-(trifluoromethyl)phenyl]-4-[6-(1-methyl-1H-pyrrol-2-yl)pyridin-3-yl]piperidin-4-yl}-3-[(3R)-1-methylpyrrolidin-3-yl]urea [Compound 2-48]”, the Ki is below 10 nM.

Take `CCOc1ncccc1-c1ccc(C2(C(=O)NC[C@H](C)N(C)C)CCN(c3ccc(C(F)(F)F)cc3C#N)CC2)cn1` [Compound 1-332, 1-[2-cyano-4-(trifluoromethyl)phenyl]-N-[(2S)-2-(dimethylamino)propyl]-4-{2′-ethoxy-[2,3′-bipyridin]-5-yl}piperidine-4-carboxamide]: the Ki was below 10 nM.

As for `CCOc1ncccc1-c1ccc(C2(NC(=O)[C@H]3CCCN3C)CCN(c3ccc(C(F)(F)F)cc3C#N)CC2)cc1` [Compound 2-17, (2R)—N-{1-[2-cyano-4-(trifluoromethyl)phenyl]-4-[4-(2-ethoxypyridin-3-yl)phenyl]piperidin-4-yl}-1-methylpyrrolidine-2-carboxamide], the Ki was in the range of 10 to 100 nM.

Values taken from patent publication US12492181B2, “Gem-disubstituted piperidine melanocortin subtype-2 receptor (MC2R) antagonists and uses thereof” (Crinetics Pharmaceuticals, Inc., priority 2019, dated 2025).
